Tests used:
[1] = biological target: T1, Interleukin-1 receptor-associated kinase 4 (Homo sapiens) (UniProt Q9NWZ3); test: Inhibition of IRAK4 (unknown origin) assessed as residual activity at 1000 nM by KINOMEscan analysis relative to control
T1 sequence (whole entry): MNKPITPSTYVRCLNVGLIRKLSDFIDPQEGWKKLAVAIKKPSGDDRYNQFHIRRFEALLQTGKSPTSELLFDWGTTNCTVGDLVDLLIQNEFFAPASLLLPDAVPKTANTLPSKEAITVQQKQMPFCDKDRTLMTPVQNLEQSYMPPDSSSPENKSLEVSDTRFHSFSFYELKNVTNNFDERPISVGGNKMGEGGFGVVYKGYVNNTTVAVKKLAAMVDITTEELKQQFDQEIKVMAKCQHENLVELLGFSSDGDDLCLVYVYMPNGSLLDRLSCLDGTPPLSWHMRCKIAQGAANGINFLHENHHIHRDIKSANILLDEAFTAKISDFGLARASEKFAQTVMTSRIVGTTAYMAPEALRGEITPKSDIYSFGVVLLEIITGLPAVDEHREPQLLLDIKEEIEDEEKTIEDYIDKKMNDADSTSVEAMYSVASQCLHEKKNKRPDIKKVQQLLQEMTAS

[2] = tested on: Phosphatidylinositol 4,5-bisphosphate 3-kinase catalytic subunit alpha isoform (Homo sapiens), P42336 [H1047L]; test: Inhibition of PIK3CA H1047L mutant (unknown origin) assessed as residual activity at 1000 nM by KINOMEscan analysis relative to control
Chain of Phosphatidylinositol 4,5-bisphosphate 3-kinase catalytic subunit alpha isoform (Homo sapiens), P42336 [H1047L] (P42336 whole entry H1047L, canonical isoform): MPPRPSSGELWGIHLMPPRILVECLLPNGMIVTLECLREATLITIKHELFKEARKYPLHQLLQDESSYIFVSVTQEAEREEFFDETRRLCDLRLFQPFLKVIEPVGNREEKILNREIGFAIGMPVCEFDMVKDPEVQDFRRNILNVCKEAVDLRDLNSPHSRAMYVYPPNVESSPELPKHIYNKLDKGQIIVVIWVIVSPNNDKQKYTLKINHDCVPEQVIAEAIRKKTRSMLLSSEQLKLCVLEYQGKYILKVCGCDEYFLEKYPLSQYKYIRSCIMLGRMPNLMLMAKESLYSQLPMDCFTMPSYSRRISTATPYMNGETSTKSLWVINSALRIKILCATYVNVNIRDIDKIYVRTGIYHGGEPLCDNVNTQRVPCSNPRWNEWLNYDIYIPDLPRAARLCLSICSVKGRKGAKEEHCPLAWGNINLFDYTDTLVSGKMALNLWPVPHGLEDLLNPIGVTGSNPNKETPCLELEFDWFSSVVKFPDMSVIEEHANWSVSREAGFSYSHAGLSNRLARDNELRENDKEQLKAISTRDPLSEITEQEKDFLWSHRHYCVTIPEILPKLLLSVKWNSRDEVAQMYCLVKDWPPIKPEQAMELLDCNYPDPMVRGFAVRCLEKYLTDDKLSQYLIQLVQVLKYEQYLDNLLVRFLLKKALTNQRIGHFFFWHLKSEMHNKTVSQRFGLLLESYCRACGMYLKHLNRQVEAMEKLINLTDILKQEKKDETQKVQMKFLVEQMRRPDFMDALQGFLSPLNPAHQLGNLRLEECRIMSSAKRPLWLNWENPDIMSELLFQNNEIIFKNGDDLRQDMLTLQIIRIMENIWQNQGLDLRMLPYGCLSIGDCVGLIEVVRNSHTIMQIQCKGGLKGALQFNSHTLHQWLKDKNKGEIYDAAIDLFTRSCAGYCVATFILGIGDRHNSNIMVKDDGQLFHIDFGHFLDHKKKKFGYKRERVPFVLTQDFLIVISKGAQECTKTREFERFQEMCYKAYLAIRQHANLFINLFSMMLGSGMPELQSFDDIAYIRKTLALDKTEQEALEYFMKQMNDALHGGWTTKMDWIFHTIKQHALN

[3] = biological target: T2, Serine/threonine-protein kinase D2 (Homo sapiens) (UniProt Q9BZL6); test: Inhibition of PRKD2 (unknown origin) assessed as residual activity at 1000 nM by KINOMEscan analysis relative to control
T2 sequence (whole entry): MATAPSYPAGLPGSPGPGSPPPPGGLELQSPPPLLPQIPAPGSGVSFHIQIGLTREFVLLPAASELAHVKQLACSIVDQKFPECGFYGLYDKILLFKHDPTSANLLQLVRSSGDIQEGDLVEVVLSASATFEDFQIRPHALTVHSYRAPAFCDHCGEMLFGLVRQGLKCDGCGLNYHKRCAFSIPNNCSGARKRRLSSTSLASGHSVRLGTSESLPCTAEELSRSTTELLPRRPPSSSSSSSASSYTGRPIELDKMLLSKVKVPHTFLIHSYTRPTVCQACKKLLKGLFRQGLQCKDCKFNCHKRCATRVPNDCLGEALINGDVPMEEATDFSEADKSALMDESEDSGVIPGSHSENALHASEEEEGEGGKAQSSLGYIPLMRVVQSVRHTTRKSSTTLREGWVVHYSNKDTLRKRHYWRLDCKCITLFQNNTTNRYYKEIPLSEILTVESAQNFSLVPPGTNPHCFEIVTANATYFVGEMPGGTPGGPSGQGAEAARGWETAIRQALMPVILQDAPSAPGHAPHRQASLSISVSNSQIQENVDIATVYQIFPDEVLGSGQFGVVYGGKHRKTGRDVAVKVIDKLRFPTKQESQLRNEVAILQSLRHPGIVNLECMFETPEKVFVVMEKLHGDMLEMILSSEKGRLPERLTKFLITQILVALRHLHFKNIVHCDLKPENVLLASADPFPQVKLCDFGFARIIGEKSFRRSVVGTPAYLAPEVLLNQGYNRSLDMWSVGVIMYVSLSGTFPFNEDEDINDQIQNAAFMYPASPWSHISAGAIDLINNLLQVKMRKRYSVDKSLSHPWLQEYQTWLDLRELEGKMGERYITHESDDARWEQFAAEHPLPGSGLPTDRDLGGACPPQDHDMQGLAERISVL

[4] = biological target: T3, cAMP-dependent protein kinase catalytic subunit PRKX (Homo sapiens) (UniProt P51817); test: Inhibition of PRKX (unknown origin) assessed as residual activity at 1000 nM by KINOMEscan analysis relative to control
T3 sequence (whole entry): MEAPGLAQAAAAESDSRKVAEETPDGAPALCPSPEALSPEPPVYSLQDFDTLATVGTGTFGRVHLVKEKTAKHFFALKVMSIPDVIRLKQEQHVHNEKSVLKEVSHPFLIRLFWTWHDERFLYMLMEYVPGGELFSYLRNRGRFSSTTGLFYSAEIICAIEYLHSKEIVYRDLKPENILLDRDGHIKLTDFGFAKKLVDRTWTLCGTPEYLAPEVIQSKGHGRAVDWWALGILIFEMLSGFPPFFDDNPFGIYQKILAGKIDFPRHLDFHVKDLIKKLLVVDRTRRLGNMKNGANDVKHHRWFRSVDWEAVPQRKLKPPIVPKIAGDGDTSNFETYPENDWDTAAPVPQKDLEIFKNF

SMILES | Activity [1] [%] | Activity [2] [%] | Activity [3] [%] | Activity [4] [%]
COc1cc2nc(C)nc(N[C@H](C)c3cccc(-c4cn[nH]c4)c3)c2cc1OC | 59 | 96 | 100 | 100
COc1cc2ncnc(N[C@H](C)c3cccc4ccccc34)c2cc1OC | 83 | 92 | 90 | 96

Reference: ChEMBL document CHEMBL5678818, “Discovery of potent SOS1 inhibitors that block RAS activation via disruption of the RAS-SOS1 interaction” (Proc Natl Acad Sci U S A, 2019)
